Patent US8778948B2, “Substituted phenylpiperazinyl aralkylalcohol derivatives, pharmaceutical compositions containing such derivatives and uses thereof” (priority 2008, dated 2014)
Where a name gives a salt, the structure may show the parent alone. Marks after values point to notes of the source that are not given here.

Legend:
[1] = molecular target: opioid receptor subtype δ (Homo sapiens, UniProt P41143); assay: Competitive radioligand binding ([3H]Diprenorphine), opioid receptor subtype δ; settings: read-out: Inhibition percentage of competitive binding, δ
Sequence of opioid receptor subtype δ (P41143 whole entry): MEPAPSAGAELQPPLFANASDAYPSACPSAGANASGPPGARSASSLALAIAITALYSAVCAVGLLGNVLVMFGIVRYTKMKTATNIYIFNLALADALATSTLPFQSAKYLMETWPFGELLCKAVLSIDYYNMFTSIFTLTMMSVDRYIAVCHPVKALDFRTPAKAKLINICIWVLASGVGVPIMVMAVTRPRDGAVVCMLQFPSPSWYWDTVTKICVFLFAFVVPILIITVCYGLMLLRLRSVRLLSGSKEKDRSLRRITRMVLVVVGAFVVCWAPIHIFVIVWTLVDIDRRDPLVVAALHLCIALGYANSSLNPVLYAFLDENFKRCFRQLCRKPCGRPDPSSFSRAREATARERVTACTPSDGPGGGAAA
Protocol: (§1) Competitive Binding Between the Compounds and Opioid Receptor Subtypes μ, δ, κ
(§2) The respective test compounds were added to the sample tube (final concentration of 10^−5M), incubated at 37° C. for 30 min and placed in ice bath to terminate the reaction. The reaction mixture was filtered through GF/C(Whatman) glass fiber filter by vacuum filtration on a Millipore sample collector. The filter was washed three times with 50 mM Tris-HCl (pH7.4), each with 4 ml; dried and transferred into a 0.5 ml Eppendorf tube, in which 0.5 ml lipophilic scintillation fluid was added. Radioactivity was detected by a LS6500 scintillation counter. Each concentration had three duplicate test tubes and each separate test was repeated 3 to 4 times.
(§3) Specific binding CMP value for each sample tube=overall binding CPM value for each sample tube-CPM value of non-specific binding tube. [Inhibition percentage of competitive binding between the test compound and different opioid receptor subtypes (%)=(100%−specific binding (CPM value) of sample tube/specific binding (CPM value) of solvent group×100%)]
Average was taken for each test drug from three duplicate tubes; each test was repeated two or more times. Data were presented as mean±SE and statistical comparison was made by ANOVA.

[2] = system: Kunming mice; assay: Hot-plate test in mice; format: in vivo; settings: 1 h post dose, hot plate 55° C.
Protocol: Kunming mice, SPF KM mice were purchased from […] SLAC LABORATORY ANIMAL CO. LTD and kept in normal environment.
(§4) 2. Modes of Administration
The compounds were dissolved in water for injection at a concentration of 4 mg/ml, 2 mg/ml and 1 mg/ml and were given subcutaneously to animals.
(§5) Three different doses (10, 20, and 40 mg/kg) were administered to the test groups.
Morphine was used as a positive control and hot plate test was used.
30-40 mice (half male and half female) weighing 18-23 g were used. First, each mouse was placed on a hot plat at 55° C. to determine basic pain threshold for 2-3 times. Those animals with basic pain threshold of 5-30 s were qualified, unqualified mice were not used. 30 qualified mice were divided into five groups, including negative control group, positive control group, low-dose group, medium-dose group and high-dose group:
Mice in test groups received test sample solution (10 mg/kg, 20 mg/kg, 40 mg/kg) via subcutaneous injection in the neck. Positive control group received subcutaneous injection of morphine (2 mg/kg). One hour later, pain threshold values were determined for mice in each group as post-drug pain threshold. Percentage increase in pain threshold was calculated according to the following equation: […]

[3] = in vivo; settings: mouse, po, mice
Source text: Studies of Acute Toxicity of the Compound I-1 and I-20
For statistics of 1-20, Bliss method was used (“Experimental Design and Statistical Basis for Drug Evaluation”, Changxiao Liu, Ruiyuan Su, first edition, Military Medical Science Press, 1993, 80-90).

[4] = molecular target: opioid receptor subtype κ (Homo sapiens, UniProt P41145); assay: biochemical; format: binding; settings: test concentration 10^−5 mol/L; [3H]Diprenorphine 0.4 nM; mean±SE; read-out: Inhibition percentage of competitive binding, κ
Sequence of opioid receptor subtype κ (P41145 whole entry): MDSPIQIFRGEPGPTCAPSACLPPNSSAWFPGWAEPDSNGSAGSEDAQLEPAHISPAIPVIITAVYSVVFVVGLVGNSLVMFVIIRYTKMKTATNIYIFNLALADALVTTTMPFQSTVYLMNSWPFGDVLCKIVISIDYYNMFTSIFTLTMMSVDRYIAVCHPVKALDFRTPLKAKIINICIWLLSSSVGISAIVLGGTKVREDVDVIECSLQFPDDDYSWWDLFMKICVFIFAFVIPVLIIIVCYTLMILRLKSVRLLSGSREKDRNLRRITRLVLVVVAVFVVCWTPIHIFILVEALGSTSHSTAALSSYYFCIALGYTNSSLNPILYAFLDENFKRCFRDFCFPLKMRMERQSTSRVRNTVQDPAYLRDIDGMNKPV
Protocol: as §1, §2, §3
(§6) Average was taken for each test drug from three duplicate tubes; each test was repeated two or more times.

[5] = molecular target: opioid receptor subtype μ (Homo sapiens, UniProt P35372); assay: biochemical; format: binding; settings: test concentration 10^−5 mol/L; [3H]Diprenorphine 0.4 nM; mean±SE; read-out: Inhibition percentage of competitive binding, μ
Sequence of opioid receptor subtype μ (P35372 whole entry): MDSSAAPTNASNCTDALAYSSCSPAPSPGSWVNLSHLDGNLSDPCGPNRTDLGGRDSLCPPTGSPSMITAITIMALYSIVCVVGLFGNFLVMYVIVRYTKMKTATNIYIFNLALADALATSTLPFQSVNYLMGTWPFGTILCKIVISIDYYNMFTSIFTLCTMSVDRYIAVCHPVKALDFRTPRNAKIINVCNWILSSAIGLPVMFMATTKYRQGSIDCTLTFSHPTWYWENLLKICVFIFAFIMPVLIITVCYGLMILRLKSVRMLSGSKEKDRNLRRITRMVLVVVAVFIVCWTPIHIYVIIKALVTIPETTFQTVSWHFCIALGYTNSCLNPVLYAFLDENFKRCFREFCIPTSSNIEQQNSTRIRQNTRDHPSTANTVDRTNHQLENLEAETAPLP
Protocol: as §1, §2, §3, §6

[6] = system: Kunming mice; assay: Acetic acid-induced abdominal writhing test in mice; format: in vivo; settings: 1 h before 0.7% acetic acid i.p.
Protocol: Acetic Acid-Induced Abdominal Writhing Test in Mice
Kunming mice, SPF KM mice purchased from […] SLAC LABORATORY ANIMAL CO. LTD and kept in normal environment.
as §4
The compounds were dissolved in water for injection at a concentration of 4 mg/ml, 2 mg/ml and 1 mg/ml and were given intragastrically to animals.
as §5
Aspirin was used as a positive control and acetic acid writhing test was used.
30 mice (half male and half female) weighing 18-23 g were divided into five groups, including negative control group, positive control group, low dose group, medium dose group and high dose group:
Mice in test group received test drug (10 mg/kg, 20 mg/kg, 40 mg/kg) via intragastric administration. Negative control group received physiological saline (20 ml/kg) via oral administration. Positive control group received aspirin (200 mg/kg) via oral administration. One hour later, each group received 0.7% acetic acid 10 ml/kg intraperitoneally. Five minutes later, the number of writhes was counted within the subsequent 15 min period; inhibition percentage of writhing response in each test group was calculated by the following equation: […]

## COc1ccccc1N1CCN(C(C)C(O)c2ccc3[nH]c(=O)[nH]c3c2)CC1 (racemic) (as salt: hydrochloride)
other
  melting point: 221 to 223 °C

## CC(C(O)c1ccc2[nH]c(=O)sc2c1)N1CCN(c2cccc(C(F)(F)F)c2)CC1 (racemic) (as salt: hydrochloride)
other
  melting point: 217 to 219 °C

## COc1ccccc1N1CCN([C@@H](C)[C@H](O)c2ccc3c(c2)CC(=O)N3)CC1 (racemic) (as salt: hydrochloride) [IV-1, (1RS,2SR)-5-(1-hydroxy-2-(4-(2-methoxyphenyl)piperazin-1-yl)propyl)indolin-2-one]
other
  melting point: 213 to 215 °C

## C[C@@H]([C@H](O)c1ccccc1)N1CCN(c2cccc(C(F)(F)F)c2)CC1 (racemic) [Compound I-1, (1RS,2SR)-1-phenyl-2-(4-(3-trifluoromethylphenyl)piperazinyl)-propan-1-ol]
[1]
  inhibition at 10 µM: 0%
[2]; 10 mg/kg S.c.
  Percentage increase in pain threshold: 4.53%
[2]; 20 mg/kg S.c.
  Percentage increase in pain threshold: 11.7%
[2]; 40 mg/kg S.c.
  Percentage increase in pain threshold: 89.62 ** %
[3]
  LD50: > 2000 mg/kg
[4]
  inhibition at 10 µM: 2.7 ± 0.9%
[5]
  inhibition at 10 µM: 22.7 ± 2.2%
[6]; 10 mg/kg Ig
  Inhibition percentage of writhing response: 64.38 * %
[6]; 20 mg/kg Ig
  Inhibition percentage of writhing response: 68.13 * %
[6]; 40 mg/kg Ig
  Inhibition percentage of writhing response: 83.13 ** %

## C[C@H]([C@H](O)c1ccccc1)N1CCN(c2cccc(C(F)(F)F)c2)CC1 (racemic) [Compound I-2, (1RS,2RS)-1-phenyl-2-(4-(3-trifluoromethylphenyl)piperazinyl)-propan-1-ol]
[6]; 10 mg/kg Ig
  Inhibition percentage of writhing response: 40.53%
[6]; 20 mg/kg Ig
  Inhibition percentage of writhing response: 63.16 * %
[6]; 40 mg/kg Ig
  Inhibition percentage of writhing response: 68.95 * %

## C[C@@H]([C@H](O)c1ccccc1)N1CCN(c2cccc(Cl)c2)CC1 (racemic) [Compound I-3, (1RS,2SR)-1-phenyl-2-(4-(3-chlorophenyl)piperazinyl)-propan-1-ol]
[6]; 10 mg/kg Ig
  Inhibition percentage of writhing response: 49.61%
[6]; 20 mg/kg Ig
  Inhibition percentage of writhing response: 76.38 * %
[6]; 40 mg/kg Ig
  Inhibition percentage of writhing response: 83.46 ** %

## C[C@H]([C@H](O)c1ccccc1)N1CCN(c2cccc(Cl)c2)CC1 (racemic) [Compound I-4, (1RS,2RS)-1-phenyl-2-(4-(3-chlorophenyl)piperazinyl)-propan-1-ol]
[6]; 10 mg/kg Ig
  Inhibition percentage of writhing response: 35.00%
[6]; 20 mg/kg Ig
  Inhibition percentage of writhing response: 49.38 * %
[6]; 40 mg/kg Ig
  Inhibition percentage of writhing response: 78.13 ** %

## COc1ccc(N2CCN([C@@H](C)[C@H](O)c3ccccc3)CC2)cc1 (racemic) [Compound I-7, (1RS,2SR)-1-phenyl-2-(4-(4-methoxyphenyl)piperazinyl)-propan-1-ol]
[6]; 10 mg/kg Ig
  Inhibition percentage of writhing response: 61.02%
[6]; 20 mg/kg Ig
  Inhibition percentage of writhing response: 75.42 ** %
[6]; 40 mg/kg Ig
  Inhibition percentage of writhing response: 70.34 * %

## COc1ccc([C@@H](O)[C@H](C)N2CCN(c3ccccc3OC)CC2)cc1 (racemic) [Compound I-13, (1RS,2SR)-1-(4-methoxyphenyl)-2-(4-(2-methoxyphenyl)piperazinyl)-propan-1-ol]
[2]; 10 mg/kg S.c.
  Percentage increase in pain threshold: 16.19%
[2]; 20 mg/kg S.c.
  Percentage increase in pain threshold: 74.59 * %
[2]; 40 mg/kg S.c.
  Percentage increase in pain threshold: 142.41 ** %
[6]; 10 mg/kg Ig
  Inhibition percentage of writhing response: 73.33 * %
[6]; 20 mg/kg Ig
  Inhibition percentage of writhing response: 84.55 * %
[6]; 40 mg/kg Ig
  Inhibition percentage of writhing response: 87.88 ** %

## COc1ccc([C@@H](O)[C@@H](C)N2CCN(c3ccccc3OC)CC2)cc1 (racemic) [Compound I-14, (1RS,2RS)-1-(4-methoxyphenyl)-2-(4-(2-methoxyphenyl)piperazinyl)-propan-1-ol]
[6]; 10 mg/kg Ig
  Inhibition percentage of writhing response: 74.55 * %
[6]; 20 mg/kg Ig
  Inhibition percentage of writhing response: 79.39 * %
[6]; 40 mg/kg Ig
  Inhibition percentage of writhing response: 76.36%

## C[C@@H]([C@H](O)c1ccc(NS(C)(=O)=O)cc1)N1CCN(c2cccc(C(F)(F)F)c2)CC1 (racemic) [Compound I-17, (1RS,2SR)-1-(4-methanesulfonamidophenyl)-2-(4-(3-trifluoromethylphenyl)piperazinyl)-propan-1-ol]
[2]; 10 mg/kg S.c.
  Percentage increase in pain threshold: 59.02%
[2]; 20 mg/kg S.c.
  Percentage increase in pain threshold: 147.36 ** %
[2]; 40 mg/kg S.c.
  Percentage increase in pain threshold: 172.27 ** %

## COc1ccccc1N1CCN([C@@H](C)[C@H](O)c2ccc3c(c2)CC(=O)N3)CC1 (racemic) [IV-1, (1RS,2SR)-5-(1-hydroxy-2-(4-(2-methoxyphenyl)piperazin-1-yl)propyl)indolin-2-one]
[1]
  inhibition at 10 µM: 0%
[4]
  inhibition at 10 µM: 5.3 ± 0.1%
[5]
  inhibition at 10 µM: 7.6 ± 0.8%
[6]; 10 mg/kg Ig
  Inhibition percentage of writhing response: 92.92 ** %
[6]; 20 mg/kg Ig
  Inhibition percentage of writhing response: 74.34 * %
[6]; 40 mg/kg Ig
  Inhibition percentage of writhing response: 89.38 ** %

## COc1ccccc1N1CCN([C@H](C)[C@H](O)c2ccc3c(c2)CC(=O)N3)CC1 (racemic) [IV-2, (1RS,2RS)-5-(1-hydroxy-2-(4-(2-methoxyphenyl)piperazin-1-yl)propyl)indolin-2-one]
[6]; 10 mg/kg Ig
  Inhibition percentage of writhing response: 98.23 ** %
[6]; 20 mg/kg Ig
  Inhibition percentage of writhing response: 97.35 ** %
[6]; 40 mg/kg Ig
  Inhibition percentage of writhing response: 93.81 ** %

## CC(=O)Oc1ccccc1C(=O)O [Aspirin, reference compound]
[6]; positive control aspirin 200 mg/kg oral
  Inhibition percentage of writhing response: 95.05 ** %

## COc1ccccc1N1CCN([C@@H](C)[C@H](O)c2ccccc2)CC1 [II-1, (1R,2S)-1-phenyl-2-(4-(2-methoxyphenyl)piperazinyl)-propan-1-ol]
[6]; 10 mg/kg Ig
  Inhibition percentage of writhing response: 30.09%
[6]; 20 mg/kg Ig
  Inhibition percentage of writhing response: 47.79 * %
[6]; 40 mg/kg Ig
  Inhibition percentage of writhing response: 58.41 * %

## COc1ccccc1N1CCN([C@@H](C)[C@@H](O)c2ccccc2)CC1 [II-2, (1S,2S)-1-phenyl-2-(4-(2-methoxyphenyl)piperazinyl)-propan-1-ol]
[1]
  inhibition at 10 µM: 12.8 ± 0.8%
[4]
  inhibition at 10 µM: 36.5 ± 1.6%
[5]
  inhibition at 10 µM: 5.3 ± 0.9%
[6]; 10 mg/kg Ig
  Inhibition percentage of writhing response: 69.91 * %
[6]; 20 mg/kg Ig
  Inhibition percentage of writhing response: 71.48 * %
[6]; 40 mg/kg Ig
  Inhibition percentage of writhing response: 74.34 ** %

## COc1ccccc1N1CCN([C@H](C)[C@@H](O)c2ccccc2)CC1 [III-1, (1S,2R)-1-phenyl-2-(4-(2-methoxyphenyl)piperazinyl)-propan-1-ol]
[6]; 10 mg/kg Ig
  Inhibition percentage of writhing response: 69.28 ** %
[6]; 20 mg/kg Ig
  Inhibition percentage of writhing response: 55.56 * %
[6]; 40 mg/kg Ig
  Inhibition percentage of writhing response: 67.32 ** %

## COc1ccccc1N1CCN([C@H](C)[C@H](O)c2ccccc2)CC1 [III-2, (1R,2R)-1-phenyl-2-(4-(2-methoxyphenyl)piperazinyl)-propan-1-ol]
[1]
  inhibition at 10 µM: 16.8 ± 2.3%
[2]; 10 mg/kg S.c.
  Percentage increase in pain threshold: 72.91%
[2]; 20 mg/kg S.c.
  Percentage increase in pain threshold: 133.48 * %
[2]; 40 mg/kg S.c.
  Percentage increase in pain threshold: 151.86 * %
[4]
  inhibition at 10 µM: 40 ± 0.6%
[5]
  inhibition at 10 µM: 25.1 ± 1.3%
[6]; 10 mg/kg Ig
  Inhibition percentage of writhing response: 64.05 ** %
[6]; 20 mg/kg Ig
  Inhibition percentage of writhing response: 76.47 ** %
[6]; 40 mg/kg Ig
  Inhibition percentage of writhing response: 86.27 ** %

## CN1CC[C@]23c4c5ccc(O)c4O[C@H]2[C@@H](O)C=C[C@H]3[C@H]1C5 [morphine, reference compound]
[2]; positive control morphine 2 mg/kg S.c.
  Percentage increase in pain threshold: 202.5 ** %
